The source of these data is patent US9758527B2, “Cyclohexene derivative, preparation method therefor, and pharmaceutical composition for preventing or treating metabolic diseases, containing same as active ingredient” (HYUNDAI PHARM CO., LTD., priority 2014, dated 2017).

Structures can show the parent of a compound that is named as a salt. Where two headings read alike, the source gives them in different places.

This assay concerns the target T1, G protein-coupled receptor 119 (GPR-119) (Mesocricetus auratus, UniProt A0A1U8CD06).
T1 construct: hamster-derived β-cells containing G protein-coupled receptor 119 (GPR-119), HIT-T15 cells; host or cells: HIT-T15 (hamster pancreatic β-cells)
T1 sequence (A0A1U8CD06 1-334): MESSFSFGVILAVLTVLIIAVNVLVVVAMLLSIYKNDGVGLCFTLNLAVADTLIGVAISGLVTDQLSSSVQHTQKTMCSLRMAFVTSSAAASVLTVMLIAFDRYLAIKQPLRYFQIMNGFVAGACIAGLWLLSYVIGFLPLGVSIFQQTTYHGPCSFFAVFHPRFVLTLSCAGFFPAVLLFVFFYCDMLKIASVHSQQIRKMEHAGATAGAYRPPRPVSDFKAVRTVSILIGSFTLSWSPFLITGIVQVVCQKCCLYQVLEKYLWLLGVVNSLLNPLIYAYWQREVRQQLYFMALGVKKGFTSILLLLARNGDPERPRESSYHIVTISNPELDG
Kind of assay: Evaluation of cAMP activity in HIT-T15 cells (HTRF cAMP dynamic kit). Type of assay: cell-based, hamster. To be noted: cAMP activation. The procedure, abridged:
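HIT-T15 cells, 60,000/well, treated next day with compound at six concentrations ([…]) for 1 h at 37° C. Lysate cAMP quantified by HTRF competitive immunoassay (D2-cAMP, cryptate anti-cAMP); activity taken as change in FRET signal relative to DMSO.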
(In general: In TR-FRET formats the signal depends on donor and acceptor labels being close together.)

Where [1] appears, read: 1 h at 37° C., six concentrations, read-out: EC50.

The term EC50 denotes the concentration giving half of the maximal effect.

`C[C@@H](CO)NC(=O)C1CC=C(c2ccc(OCC3CCN(C(=O)OC(C)(C)C)CC3)cc2F)CC1` (stereo partly drawn) [Example 130, tert-butyl 4-((3-fluoro-4-(4-((S)-1-hydroxypropan-2-ylcarbamoyl)cyclohex-1-enyl)phenoxy)methyl)piperidine-1-carboxylate]: the EC50 under setting [1] turned out to be 90 nM.

Take `CC(C)(C)OC(=O)N1CCC(COc2ccc(C3=CCC(C(=O)NC[C@@H](O)CO)CC3)c(F)c2)CC1` (stereo partly drawn) [Example 131, tert-butyl 4-((4-(4-((R)-2,3-dihydroxypropylcarbamoyl)cyclohex-1-enyl)-3-fluorophenoxy)methyl)piperidine-1-carboxylate]: the EC50 under setting [1] is 150 nM.

In the case of `CC(C)(C)OC(=O)N1CCC(COc2ccc(C3=CCC(C(=O)NC[C@H](O)CO)CC3)c(F)c2)CC1` (stereo partly drawn) [Example 132, tert-butyl 4-((4-(4-((S)-2,3-dihydroxypropylcarbamoyl)cyclohex-1-enyl)-3-fluorophenoxy)methyl)piperidine-1-carboxylate], the EC50 under setting [1] was 210 nM.

In the case of `CC(C)c1noc(N2CCC(COc3ccc(C4=CCC(C(=O)NCC(=O)N5CCC[C@H]5C(N)=O)CC4)cc3F)CC2)n1` (stereo partly drawn) [Example 133, (2S)-1-(2-(4-(3-fluoro-4-((1-(3-isopropyl-1,2,4-oxadiazol-5-yl)piperidin-4-yl)methoxy)phenyl)cyclohex-3-enecarboxamido)acetyl)pyrrolidine-2-carboxamide], the EC50 under setting [1] came to 400 nM.

For `CC(C)c1noc(N2CCC(COc3ccc(C4=CCC(C(=O)NCCC(=O)N5CCC[C@H]5C(N)=O)CC4)cc3F)CC2)n1` (stereo partly drawn) [Example 134, (2S)-1-(3-(4-(3-fluoro-4-((1-(3-isopropyl-1,2,4-oxadiazol-5-yl)piperidin-4-yl)methoxy)phenyl)cyclohex-3-enecarboxamido)propanoyl)pyrrolidine-2-carboxamide], the EC50 under setting [1] came out at 350 nM.

Regarding `CCc1cnc(N2CCC(COc3ccc(C4=CCC(C(=O)N5CC[C@H](O)C5)CC4)cc3)CC2)nc1` (stereo partly drawn) [Example 135, (4-(4-((1-(5-ethylpyrimidin-2-yl)piperidin-4-yl)methoxy)phenyl)cyclohex-3-enyl)((S)-3-hydroxypyrrolidin-1-yl)methanone], the EC50 is, setting by setting: under setting [1], 30 nM; (read-out: EC50 value) no more than 50 nM.

Take `CCc1cnc(N2CCC(COc3ccc(C4=CCC(C(=O)NC[C@H](C)O)CC4)cc3)CC2)nc1` (stereo partly drawn) [Example 136, 4-(4-((1-(5-ethylpyrimidin-2-yl)piperidin-4-yl)methoxy)phenyl)-N-((S)-2-hydroxypropyl)cyclohex-3-enecarboxamide]: the EC50 under setting [1] was found to be 62 nM.

Regarding `CC(C)(C)OC(=O)N1CCC(COc2ccc(C3=CCC(C(=O)NC4CC4)CC3)c(F)c2)CC1` (stereo not drawn) [Example 137, tert-butyl 4-((4-(4-(cyclopropylcarbamoyl)cyclohex-1-enyl)-3-fluorophenoxy)methyl)piperidine-1-carboxylate], the EC50 under setting [1] was found to be 60 nM.

Take `CC(C)(C)OC(=O)N1CCC(COc2ccc(C3=CCC(C(=O)NCCF)CC3)c(F)c2)CC1` (stereo not drawn) [Example 138, tert-butyl 4-((3-fluoro-4-(4-(2-fluoroethylcarbamoyl)cyclohex-1-enyl)phenoxy)methyl)piperidine-1-carboxylate]: the EC50 under setting [1] was determined as 100 nM.

Consider `CC(C)c1noc(N2CCC(COc3ccc(C4=CCC(C(=O)NCCC(=O)N5CCC[C@H]5C#N)CC4)cc3F)CC2)n1` (stereo partly drawn) [Example 140, N-(3-((S)-2-cyanopyrrolidin-1-yl)-3-oxopropyl)-4-(3-fluoro-4-((1-(3-isopropyl-1,2,4-oxadiazol-5-yl)piperidin-4-yl)methoxy)phenyl)cyclohex-3-enecarboxamide], for which, under setting [1], the EC50 stood at 120 nM.

Take `CC(C)(C)OC(=O)N1CCC(COc2ccc(C3=CCC(C(=O)NCC(F)F)CC3)c(F)c2)CC1` (stereo not drawn) [Example 141, tert-butyl 4-((4-(4-(2,2-difluoroethylcarbamoyl)cyclohex-1-enyl)-3-fluorophenoxy)methyl)piperidine-1-carboxylate]: under setting [1], the EC50 was 75 nM.

For the molecule `CC(C)(C)OC(=O)N1CCC(COc2ccc(C3=CCC(C(=O)NCC(F)(F)F)CC3)c(F)c2)CC1` (stereo not drawn) [Example 142, tert-butyl 4-((3-fluoro-4-(4-(2,2,2-trifluoroethylcarbamoyl)cyclohex-1-enyl)phenoxy)methyl)piperidine-1-carboxylate], the EC50 under setting [1] was determined as 85 nM.

With `CC(C)c1noc(N2CCC(COc3ccc(C4=CCC(C(=O)N5CC[C@@H](CO)C5)CC4)cc3)CC2)n1` (stereo partly drawn) [Example 149, ((R)-3-(hydroxymethyl)pyrrolidin-1-yl)(4-(4-((1-(3-isopropyl-1,2,4-oxadiazol-5-yl)piperidin-4-yl)methoxy)phenyl)cyclohex-3-enyl)methanone], the EC50 is 23 nM under setting [1] and no more than 50 nM (read-out: EC50 value).

Consider `CC(C)c1noc(N2CCC(COc3ccc(C4=CCC(C(=O)N5CC[C@H](CO)C5)CC4)cc3)CC2)n1` (stereo partly drawn) [Example 150, ((S)-3-(hydroxymethyl)pyrrolidin-1-yl)(4-(4-((1-(3-isopropyl-1,2,4-oxadiazol-5-yl)piperidin-4-yl)methoxy)phenyl)cyclohex-3-enyl)methanone], for which the concentration giving a half-maximal response (EC50) under setting [1] amounted to 19 nM and the EC50 (read-out: EC50 value) was no more than 50 nM.

Take `CCc1cnc(N2CCC(COc3ccc(C4=CCC(C(=O)N5CC[C@H](CO)C5)CC4)cc3)CC2)nc1` (stereo partly drawn) [Example 152, (4-(4-((1-(5-ethylpyrimidin-2-yl)piperidin-4-yl)methoxy)phenyl)cyclohex-3-enyl)((S)-3-(hydroxymethyl)pyrrolidin-1-yl)methanone]: the EC50 was 36 nM under setting [1] and no more than 50 nM (read-out: EC50 value).

Consider `CCc1cnc(N2CCC(COc3ccc(C4=CCC(C(=O)N5CC[C@H](CO)C5)CC4)cc3)CC2)nc1` (stereo partly drawn) [Example 158, (4-(4-((1-(5-ethylpyrimidin-2-yl)piperidin-4-yl)methoxy)phenyl)cyclohex-3-enyl)((S)-3-(hydroxymethyl)pyrrolidin-1-yl)methanone hydrochloride], for which, under setting [1], the EC50 is 25 nM.

As to `CCc1cnc(N2CCC(COc3ccc(C4=CCC(C(=O)N5CC[C@@H](CO)C5)CC4)cc3)CC2)nc1` (stereo partly drawn) [Example 159, (4-(4-((1-(5-ethylpyrimidin-2-yl)piperidin-4-yl)methoxy)phenyl)cyclohex-3-enyl)((R)-3-(hydroxymethyl)pyrrolidin-1-yl)methanone hydrochloride], the EC50 was 20 nM under setting [1] and no more than 50 nM (read-out: EC50 value).

Turning to `CCc1cnc(N2CCC(COc3ccc(C4=CCC(C(=O)N5CC[C@H](F)C5)CC4)cc3)CC2)nc1` (stereo partly drawn) [Example 160, (4-(4-((1-(5-ethylpyrimidin-2-yl)piperidin-4-yl)methoxy)phenyl)cyclohex-3-enyl)((S)-3-fluoropyrrolidin-1-yl)methanone], the EC50 by setting is: under setting [1], 14 nM; (read-out: EC50 value) no more than 50 nM.

`CCc1cnc(N2CCC(COc3ccc(C4=CCC(C(=O)N5CC[C@H](F)C5)CC4)cc3)CC2)nc1` (stereo partly drawn) [Example 161, (4-(4-((1-(5-ethylpyrimidin-2-yl)piperidin-4-yl)methoxy)phenyl)cyclohex-3-enyl)((S)-3-fluoropyrrolidin-1-yl)methanone hydrochloride]: the EC50 under setting [1] came out at 6 nM.

As for `CCc1cnc(N2CCC(COc3ccc(C4=CCC(C(=O)N5CCCC5)CC4)cc3)CC2)nc1` (stereo not drawn) [Example 162, (4-(4-((1-(5-ethylpyrimidin-2-yl)piperidin-4-yl)methoxy)phenyl)cyclohex-3-enyl)(pyrrolidin-1-yl)methanone], the EC50 under setting [1] is 27 nM and the EC50 (read-out: EC50 value) is no more than 50 nM.

On to `CCc1cnc(N2CCC(COc3ccc(C4=CCC(C(=O)N5CCCCC5)CC4)cc3)CC2)nc1` (stereo not drawn) [Example 163, (4-(4-((1-(5-ethylpyrimidin-2-yl)piperidin-4-yl)methoxy)phenyl)cyclohex-3-enyl)(piperidin-1-yl)methanone], for which the EC50 is 7 nM under setting [1] and no more than 50 nM (read-out: EC50 value).

On to `CCc1cnc(N2CCC(COc3ccc(C4=CCC(C(=O)N5CCC(O)CC5)CC4)cc3)CC2)nc1` (stereo not drawn) [Example 164, (4-(4-((1-(5-ethylpyrimidin-2-yl)piperidin-4-yl)methoxy)phenyl)cyclohex-3-enyl)(4-hydroxypiperidin-1-yl)methanone], for which the concentration for a half-maximal effect (EC50) runs as follows: under setting [1], 16 nM; (read-out: EC50 value) no more than 50 nM.

Consider `CCc1cnc(N2CCC(COc3ccc(C4=CCC(C(=O)N5CCC(CO)CC5)CC4)cc3)CC2)nc1` (stereo not drawn) [Example 165, (4-(4-((1-(5-ethylpyrimidin-2-yl)piperidin-4-yl)methoxy)phenyl)cyclohex-3-enyl)(4-(hydroxymethyl)piperidin-1-yl)methanone], for which the EC50 is, setting by setting: under setting [1], 7 nM; (read-out: EC50 value) no more than 50 nM.

`CCc1cnc(N2CCC(COc3ccc(C4=CCC(C(=O)N5CCCC5)CC4)cc3)CC2)nc1` (stereo not drawn) [Example 166, (4-(4-((1-(5-ethylpyrimidin-2-yl)piperidin-4-yl)methoxy)phenyl)cyclohex-3-enyl)(pyrrolidin-1-yl)methanone hydrochloride]: the EC50 under setting [1] is 22 nM.

`CCc1cnc(N2CCC(COc3ccc(C4=CCC(C(=O)N5CCCCC5)CC4)cc3)CC2)nc1` (stereo not drawn) [Example 167, (4-(4-((1-(5-ethylpyrimidin-2-yl)piperidin-4-yl)methoxy)phenyl)cyclohex-3-enyl)(piperidin-1-yl)methanone hydrochloride]: the EC50 under setting [1] was 14 nM.

Take `CCc1cnc(N2CCC(COc3ccc(C4=CCC(C(=O)N5CCN(CCO)CC5)CC4)cc3)CC2)nc1` (stereo not drawn) [Example 172, (4-(4-((1-(5-ethylpyrimidin-2-yl)piperidin-4-yl)methoxy)phenyl)cyclohex-3-enyl)(4-(2-hydroxyethyl)piperazin-1-yl)methanone]: the EC50 under setting [1] is 38 nM.
